According to US20060069132A1, “Azolecarboxamide herbicides” (priority 2004, published 2006):

Columns and labels:
[1] = system: barnyardgrass; assay: Test B flooded paddy test; assay type: in vivo, Echinochloa crus-galli; conditions: 1000 g ai/ha, scale 0 to 100 (0 no effect, 100 complete control)
Procedure, shortened: (§1)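 Treated at 2-leaf (paddy) or 1–4-leaf, 2–18 cm (postemergence); greenhouse 13–15 d; visual score vs control, 0 none to 100 complete control; dash = not tested.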

[2] = system: morningglory; assay: Test B pre-/postemergence herbicide test; assay type: in vivo, Ipomoea coccinea; conditions: for Morningglory plant response rating (0 to 100 scale) / Plant response rating, Morningglory: 0 = no effect, 100 = complete control, preemergence; for Morningglory plant response rating: postemergence
Procedure, shortened: (§2)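 Herbicidal effect was judged by eye on a 0–100 scale after plants stood 13 to 15 days in the greenhouse following pre- or postemergence treatment with surfactant-containing formulations.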

[3] = system: barnyardgrass; assay: Test B pre-/postemergence herbicide test; assay type: in vivo, Echinochloa crus-galli; conditions: for Barnyardgrass plant response rating (0 to 100 scale) / Plant response rating, Barnyardgrass: 0 = no effect, 100 = complete control, preemergence; for Plant response rating, Barnyardgrass / Barnyardgrass plant response rating: visual rating; for Barnyardgrass plant response rating: postemergence, scale 0 (no effect) to 100 (complete control)
Procedure, shortened: as §2

[4] = system: rice; assay: Test B flooded paddy test; assay type: in vivo, Oryza sativa; conditions: 1000 g ai/ha, scale 0 to 100 (0 no effect, 100 complete control)
Procedure, shortened: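 Postemergence plants were sprayed with formulated test chemicals at 2 to 18 cm height (1- to 4-leaf stage); paddy species were grown to the 2-leaf stage. After 13 to 15 days in a greenhouse, injury was rated visually against untreated controls on a 0–100 scale (0 = no effect, 100 = complete control).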

[5] = system: lambsquarters; assay: Test B pre-/postemergence herbicide test; assay type: in vivo, Chenopodium album; conditions: for Lambsquarters plant response rating: postemergence
Procedure, shortened: (§3)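 Response was scored visually 13 to 15 days after treatment against untreated greenhouse controls, 0 meaning no effect and 100 complete control. Formulations (solvent mixture plus surfactant) went onto soil after planting, onto foliage of 1- to 4-leaf plants, and onto 2-leaf plants in a flooded paddy set including rice and barnyardgrass.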

[6] = system: pigweed; assay: Test B pre-/postemergence herbicide test; assay type: in vivo, Amaranthus retroflexus; conditions: for Pigweed plant response rating: postemergence
Procedure, shortened: as §3

[7] = system: wheat; assay: Test B postemergence herbicide test; assay type: in vivo, Triticum aestivum; parameters: key to Wheat plant response rating: 0 = no effect, 100 = complete control; conditions: postemergence
Procedure, shortened: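 Formulated test chemicals went onto postemergence plants measuring 2 to 18 cm, at one to four leaves. For the paddy assay, species had reached two leaves. Scoring took place 13–15 days later by eye, relative to untreated plants, using 0 for no effect up to 100 for full control.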

[8] = system: cocklebur; assay: Test B pre-/postemergence herbicide test; assay type: in vivo, Xanthium strumarium; conditions: for Cocklebur plant response rating (0 to 100 scale) / Plant response rating, Cocklebur: 0 = no effect, 100 = complete control, preemergence; for Plant response rating, Cocklebur / Cocklebur plant response rating: visual rating; for Cocklebur plant response rating: postemergence, scale 0 (no effect) to 100 (complete control)
Procedure, shortened: as §2

[9] = system: small flower umbrella sedge; assay: Test B flooded paddy test; assay type: in vivo, Cyperus difformis; conditions: 1000 g ai/ha, scale 0 to 100 (0 no effect, 100 complete control)
Procedure, shortened: as §1

[10] = system: large crabgrass; assay: Test B pre-/postemergence herbicide test; assay type: in vivo, Digitaria sanguinalis; conditions: for Crabgrass, Large plant response rating (0 to 100 scale) / Plant response rating, Crabgrass, Large: 0 = no effect, 100 = complete control, preemergence; for Crabgrass, Large plant response rating: postemergence
Procedure, shortened: as §3

[11] = system: Surinam grass; assay: Test B pre-/postemergence herbicide test; assay type: in vivo, Urochloa decumbens; conditions: for Surinam Grass plant response rating (0 to 100 scale) / Plant response rating, Surinam Grass: 0 = no effect, 100 = complete control, preemergence; for Surinam Grass plant response rating: postemergence
Procedure, shortened: as §3

[12] = system: blackgrass; assay: Test B postemergence herbicide test; assay type: in vivo, Alopecurus myosuroides; conditions: postemergence, visual rating, scale 0 (no effect) to 100 (complete control)
Procedure, shortened: as §1

[13] = system: ducksalad; assay: Test B flooded paddy test; assay type: in vivo, Heteranthera limosa; conditions: 1000 g ai/ha, scale 0 to 100 (0 no effect, 100 complete control)
Procedure, shortened: as §1

[14] = system: velvetleaf; assay: Test B pre-/postemergence herbicide test; assay type: in vivo, Abutilon theophrasti; conditions: for Velvetleaf plant response rating (0 to 100 scale) / Plant response rating, Velvetleaf: 0 = no effect, 100 = complete control, preemergence; for Velvetleaf plant response rating: postemergence
Procedure, shortened: as §3

[15] = system: giant foxtail; assay: Test B pre-/postemergence herbicide test; assay type: in vivo, Setaria faberi; conditions: for Foxtail, Giant plant response rating (0 to 100 scale) / Plant response rating, Foxtail, Giant: 0 = no effect, 100 = complete control, preemergence; for Foxtail, Giant plant response rating: postemergence
Procedure, shortened: as §3

[16] = 125 g ai/ha, visual rating, scale 0 (no effect) to 100 (complete control)
[17] = 500 g ai/ha, scale 0 to 100, 0 is no effect, 100 is complete control
[18] = 125 g ai/ha, 0 = no effect, 100 = complete control, preemergence
[19] = 500 g ai/ha, visual rating, 0 = no effect, 100 = complete control, preemergence

## CCn1nc(C(C)(C)C)cc1C(=O)Nc1cc(C(=O)N2CCCC2)ccc1F [Compound 242]
[1]
  Barnyardgrass plant response rating: 90
[2]; 125 g ai/ha
  Morningglory plant response rating (0 to 100 scale): 0
[2]; 500 g ai/ha, visual rating
  Plant response rating, Morningglory: 10
[2]; [16]
  Morningglory plant response rating: 20
[2]; [17]
  Morningglory plant response rating: 40
[3]; 125 g ai/ha
  Barnyardgrass plant response rating (0 to 100 scale): 80
  Barnyardgrass plant response rating: 50
[3]; 500 g ai/ha
  Plant response rating, Barnyardgrass: 100
  Barnyardgrass plant response rating: 60
[4]
  Rice plant response rating: 90
[5]; [18]
  Lambsquarters plant response rating (0 to 100 scale): 100
[5]; [19]
  Plant response rating, Lambsquarters: 100
[5]; [16]
  Lambsquarters plant response rating: 90
[5]; [17]
  Lambsquarters plant response rating: 90
[6]; [18]
  Pigweed plant response rating (0 to 100 scale): 100
[6]; [19]
  Plant response rating, Pigweed: 100
[6]; [16]
  Pigweed plant response rating: 60
[6]; [17]
  Pigweed plant response rating: 80
[7]; [16]
  Wheat plant response rating: 10
[7]; [17]
  Wheat plant response rating: 10
[8]; 125 g ai/ha
  Cocklebur plant response rating (0 to 100 scale): 10
  Cocklebur plant response rating: 40
[8]; 500 g ai/ha
  Plant response rating, Cocklebur: 40
  Cocklebur plant response rating: 90
[9]
  Sedge, Umbrella plant response rating: 90
[10]; 125 g ai/ha
  Crabgrass, Large plant response rating (0 to 100 scale): 90
[10]; 500 g ai/ha, visual rating
  Plant response rating, Crabgrass, Large: 100
[10]; [16]
  Crabgrass, Large plant response rating: 30
[10]; [17]
  Crabgrass, Large plant response rating: 50
[11]; 125 g ai/ha
  Surinam Grass plant response rating (0 to 100 scale): 70
[11]; 500 g ai/ha, visual rating
  Plant response rating, Surinam Grass: 90
[11]; [16]
  Surinam Grass plant response rating: 30
[11]; [17]
  Surinam Grass plant response rating: 60
[12]; 125 g ai/ha
  Blackgrass plant response rating: 10
[12]; 500 g ai/ha
  Blackgrass plant response rating: 20
[13]
  Ducksalad plant response rating: 90
[14]; 125 g ai/ha
  Velvetleaf plant response rating (0 to 100 scale): 50
[14]; 500 g ai/ha, visual rating
  Plant response rating, Velvetleaf: 100
[14]; [16]
  Velvetleaf plant response rating: 50
[14]; [17]
  Velvetleaf plant response rating: 60
[15]; 125 g ai/ha
  Foxtail, Giant plant response rating (0 to 100 scale): 80
[15]; 500 g ai/ha, visual rating
  Plant response rating, Foxtail, Giant: 90
[15]; [16]
  Foxtail, Giant plant response rating: 20
[15]; [17]
  Foxtail, Giant plant response rating: 30

## CCn1nc(C(C)(C)C)cc1C(=O)Nc1cc(C(=O)OC(C)C)c(F)cc1F [Compound 248]
[1]
  Barnyardgrass plant response rating: 40
[2]; 125 g ai/ha
  Morningglory plant response rating (0 to 100 scale): 0
[2]; 500 g ai/ha, visual rating
  Plant response rating, Morningglory: 0
[2]; [16]
  Morningglory plant response rating: 20
[2]; [17]
  Morningglory plant response rating: 50
[3]; 125 g ai/ha
  Barnyardgrass plant response rating (0 to 100 scale): 0
  Barnyardgrass plant response rating: 10
[3]; 500 g ai/ha
  Plant response rating, Barnyardgrass: 20
  Barnyardgrass plant response rating: 40
[4]
  Rice plant response rating: 50
[5]; [18]
  Lambsquarters plant response rating (0 to 100 scale): 0
[5]; [16]
  Lambsquarters plant response rating: 60
[5]; [17]
  Lambsquarters plant response rating: 70
[6]; [18]
  Pigweed plant response rating (0 to 100 scale): 0
[6]; [16]
  Pigweed plant response rating: 60
[6]; [17]
  Pigweed plant response rating: 80
[7]; [16]
  Wheat plant response rating: 30
[7]; [17]
  Wheat plant response rating: 40
[8]; 125 g ai/ha
  Cocklebur plant response rating (0 to 100 scale): 0
  Cocklebur plant response rating: 30
[8]; 500 g ai/ha
  Plant response rating, Cocklebur: 0
  Cocklebur plant response rating: 50
[9]
  Sedge, Umbrella plant response rating: 50
[10]; 125 g ai/ha
  Crabgrass, Large plant response rating (0 to 100 scale): 20
[10]; 500 g ai/ha, visual rating
  Plant response rating, Crabgrass, Large: 40
[10]; [16]
  Crabgrass, Large plant response rating: 10
[10]; [17]
  Crabgrass, Large plant response rating: 20
[11]; 125 g ai/ha
  Surinam Grass plant response rating (0 to 100 scale): 20
[11]; 500 g ai/ha, visual rating
  Plant response rating, Surinam Grass: 60
[11]; [16]
  Surinam Grass plant response rating: 10
[11]; [17]
  Surinam Grass plant response rating: 20
[12]; 125 g ai/ha
  Blackgrass plant response rating: 20
[12]; 500 g ai/ha
  Blackgrass plant response rating: 30
[13]
  Ducksalad plant response rating: 30
[14]; 125 g ai/ha
  Velvetleaf plant response rating (0 to 100 scale): 0
[14]; 500 g ai/ha, visual rating
  Plant response rating, Velvetleaf: 20
[14]; [16]
  Velvetleaf plant response rating: 20
[14]; [17]
  Velvetleaf plant response rating: 30
[15]; 125 g ai/ha
  Foxtail, Giant plant response rating (0 to 100 scale): 20
[15]; 500 g ai/ha, visual rating
  Plant response rating, Foxtail, Giant: 60
[15]; [16]
  Foxtail, Giant plant response rating: 20
[15]; [17]
  Foxtail, Giant plant response rating: 30
